Measured values reported in PubChem BioAssay (NCI).
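How tested: cells in 96-well plates exposed to compound for 48 hours at five concentrations. Here, GI50 denotes the concentration required for 50% inhibition of growth. The concentration for full growth arrest is given as TGI.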

Key:
Assay in all cases: NCI-60 cell line screen, 48 h
MALME-3M melanoma = test system: MALME-3M melanoma
NCI-H226 lung = test system: NCI-H226 lung
SN12C renal = test system: SN12C renal
CAKI-1 renal = test system: CAKI-1 renal
DU-145 prostate = test system: DU-145 prostate
PC-3 prostate = test system: PC-3 prostate
SW-620 colon = test system: SW-620 colon
OVCAR-3 ovarian = test system: OVCAR-3 ovarian
K-562 leukemia = test system: K-562 leukemia
SF-295 CNS = test system: SF-295 CNS
T-47D breast = test system: T-47D breast
NCI-H23 lung = test system: NCI-H23 lung
SK-MEL-28 melanoma = test system: SK-MEL-28 melanoma
RPMI-8226 leukemia = test system: RPMI-8226 leukemia
OVCAR-4 ovarian = test system: OVCAR-4 ovarian
HOP-92 NSCLC = test system: HOP-92 NSCLC
MOLT-4 leukemia = test system: MOLT-4 leukemia
MDA-MB-231 breast = test system: MDA-MB-231 breast
M14 melanoma = test system: M14 melanoma
KM12 colon = test system: KM12 colon
HS 578T breast = test system: HS 578T breast
NCI/ADR-RES ovarian = test system: NCI/ADR-RES ovarian
A498 renal = test system: A498 renal
OVCAR-8 ovarian = test system: OVCAR-8 ovarian
TK-10 renal = test system: TK-10 renal
NCI-H460 lung = test system: NCI-H460 lung
SK-MEL-2 melanoma = test system: SK-MEL-2 melanoma
IGROV1 ovarian = test system: IGROV1 ovarian
UO-31 renal = test system: UO-31 renal
MDA-MB-435 = test system: MDA-MB-435
SK-OV-3 ovarian = test system: SK-OV-3 ovarian
HCT-15 colon = test system: HCT-15 colon
SK-MEL-5 melanoma = test system: SK-MEL-5 melanoma
HCC-2998 colon = test system: HCC-2998 colon
UACC-62 melanoma = test system: UACC-62 melanoma
U251 CNS = test system: U251 CNS
MCF7 breast = test system: MCF7 breast
UACC-257 melanoma = test system: UACC-257 melanoma
SF-539 CNS = test system: SF-539 CNS
SF-268 CNS = test system: SF-268 CNS
HT29 colon = test system: HT29 colon
SNB-19 CNS = test system: SNB-19 CNS
NCI-H522 lung = test system: NCI-H522 lung
HCT-116 colon = test system: HCT-116 colon
HOP-62 NSCLC = test system: HOP-62 NSCLC
EKVX NSCLC = test system: EKVX NSCLC
786-0 renal = test system: 786-0 renal
OVCAR-5 ovarian = test system: OVCAR-5 ovarian
BT-549 breast = test system: BT-549 breast
ACHN renal = test system: ACHN renal
COLO 205 colon = test system: COLO 205 colon
RXF 393 renal = test system: RXF 393 renal
A549 NSCLC = test system: A549 NSCLC
LOX IMVI melanoma = test system: LOX IMVI melanoma

Compound: C=C1C(=O)O[C@H]2[C@H]1CC/C(COC(=O)NCc1ccc(Cn3c(=O)sn(CCI)c3=O)cc1)=C\CC[C@@]1(C)O[C@@H]21
- GI50 (MALME-3M melanoma): 1.68 µM
- TGI (MALME-3M melanoma): 3.4 µM
- GI50 (NCI-H226 lung): 15.1 µM
- TGI (NCI-H226 lung): 33.1 µM
- GI50 (SN12C renal): 2.16 µM
- TGI (SN12C renal): 5.38 µM
- GI50 (CAKI-1 renal): 3.79 µM
- TGI (CAKI-1 renal): 14 µM
- GI50 (DU-145 prostate): 1.82 µM
- TGI (DU-145 prostate): 3.29 µM
- GI50 (PC-3 prostate): 1.75 µM
- TGI (PC-3 prostate): 3.33 µM
- GI50 (SW-620 colon): 1.66 µM
- TGI (SW-620 colon): 3.25 µM
- GI50 (OVCAR-3 ovarian): 1.64 µM
- TGI (OVCAR-3 ovarian): 3.05 µM
- GI50 (K-562 leukemia): 0.655 µM
- TGI (K-562 leukemia): > 100 µM
- GI50 (SF-295 CNS): 13.6 µM
- TGI (SF-295 CNS): 27.1 µM
- GI50 (T-47D breast): 1.32 µM
- TGI (T-47D breast): 3.06 µM
- GI50 (NCI-H23 lung): 3.46 µM
- TGI (NCI-H23 lung): 13.6 µM
- GI50 (SK-MEL-28 melanoma): 2.06 µM
- TGI (SK-MEL-28 melanoma): 3.74 µM
- GI50 (RPMI-8226 leukemia): 1.98 µM
- TGI (RPMI-8226 leukemia): 5.11 µM
- GI50 (OVCAR-4 ovarian): 2.02 µM
- TGI (OVCAR-4 ovarian): 4.19 µM
- GI50 (HOP-92 NSCLC): 1.38 µM
- TGI (HOP-92 NSCLC): 2.76 µM
- GI50 (MOLT-4 leukemia): 1.35 µM
- TGI (MOLT-4 leukemia): 5.35 µM
- GI50 (MDA-MB-231 breast): 1.77 µM
- TGI (MDA-MB-231 breast): 3.31 µM
- GI50 (M14 melanoma): 1.82 µM
- TGI (M14 melanoma): 3.59 µM
- GI50 (KM12 colon): 8.15 µM
- TGI (KM12 colon): 23.1 µM
- GI50 (HS 578T breast): 7.29 µM
- TGI (HS 578T breast): 42.4 µM
- GI50 (NCI/ADR-RES ovarian): 20.3 µM
- TGI (NCI/ADR-RES ovarian): 47.2 µM
- GI50 (A498 renal): 4.44 µM
- TGI (A498 renal): 20 µM
- GI50 (OVCAR-8 ovarian): 4.55 µM
- TGI (OVCAR-8 ovarian): 18.9 µM
- GI50 (TK-10 renal): 1.91 µM
- TGI (TK-10 renal): 3.68 µM
- GI50 (NCI-H460 lung): 6.42 µM
- TGI (NCI-H460 lung): 22.7 µM
- GI50 (SK-MEL-2 melanoma): 11.7 µM
- TGI (SK-MEL-2 melanoma): 26.2 µM
- GI50 (IGROV1 ovarian): 2.08 µM
- TGI (IGROV1 ovarian): 4.07 µM
- GI50 (UO-31 renal): 1.65 µM
- TGI (UO-31 renal): 3.11 µM
- GI50 (MDA-MB-435): 2.45 µM
- TGI (MDA-MB-435): 6.62 µM
- GI50 (SK-OV-3 ovarian): 15.2 µM
- TGI (SK-OV-3 ovarian): 28.5 µM
- GI50 (HCT-15 colon): 1.91 µM
- TGI (HCT-15 colon): 4.1 µM
- GI50 (SK-MEL-5 melanoma): 5.37 µM
- TGI (SK-MEL-5 melanoma): 17.9 µM
- GI50 (HCC-2998 colon): 10.4 µM
- TGI (HCC-2998 colon): 22.5 µM
- GI50 (UACC-62 melanoma): 1.98 µM
- TGI (UACC-62 melanoma): 4.08 µM
- GI50 (U251 CNS): 4.67 µM
- TGI (U251 CNS): 16 µM
- GI50 (MCF7 breast): 1.71 µM
- TGI (MCF7 breast): 3.64 µM
- GI50 (UACC-257 melanoma): 2.24 µM
- TGI (UACC-257 melanoma): 4.82 µM
- GI50 (SF-539 CNS): 1.72 µM
- TGI (SF-539 CNS): 3.18 µM
- GI50 (SF-268 CNS): 2.41 µM
- TGI (SF-268 CNS): 6.26 µM
- GI50 (HT29 colon): 2.1 µM
- TGI (HT29 colon): 4.05 µM
- GI50 (SNB-19 CNS): 6.88 µM
- TGI (SNB-19 CNS): 19.9 µM
- GI50 (NCI-H522 lung): 1.72 µM
- TGI (NCI-H522 lung): 3.36 µM
- GI50 (HCT-116 colon): 1.76 µM
- TGI (HCT-116 colon): 3.27 µM
- GI50 (HOP-62 NSCLC): 11.7 µM
- TGI (HOP-62 NSCLC): 24.2 µM
- GI50 (EKVX NSCLC): 2.11 µM
- TGI (EKVX NSCLC): 5.58 µM
- GI50 (786-0 renal): 1.82 µM
- TGI (786-0 renal): 3.36 µM
- GI50 (OVCAR-5 ovarian): 3.27 µM
- TGI (OVCAR-5 ovarian): 10.1 µM
- GI50 (BT-549 breast): 2.4 µM
- TGI (BT-549 breast): 6.08 µM
- GI50 (ACHN renal): 1.89 µM
- TGI (ACHN renal): 3.37 µM
- GI50 (COLO 205 colon): 1.86 µM
- TGI (COLO 205 colon): 3.55 µM
- GI50 (RXF 393 renal): 1.61 µM
- TGI (RXF 393 renal): 3.13 µM
- GI50 (A549 NSCLC): 16.6 µM
- TGI (A549 NSCLC): 32.4 µM
- GI50 (LOX IMVI melanoma): 1.69 µM
- TGI (LOX IMVI melanoma): 3.11 µM
